The experiment can be described thus: Rate of tetrazine ligation, by restoring of fluorescence, stopped-flow spectrophotometer. Conditions: 9:1 H2O:MeOH at 25° C., low concentration. The source says: The rate of the reaction between (E)-Si-(4-hydroxybutyl)-Si-methyl-5-silacycloheptene and tetramethylrhodamine-conjugated dipyridyl tetrazine was studied. The results are shown in Scheme 2. With a rate constant that exceeds 10^7 M^−1s^−1 (Scheme 2), (E)-Si-(4-hydroxybutyl)-Si-methyl-5-silacycloheptene is the most reactive dienophile to date for bioorthogonal applications. As the reaction was too rapid for reliable rate determination by UV-vis kinetics, the inventors determined the rate of the reaction by the restoring of fluorescence after tetrazine ligation at low concentration in 9:1 H2O:MeOH at 25° C. by using an SX 18MV-R stopped-flow spectrophotometer (Applied Photophysics Ltd.). This is depicted in Scheme 4.

From patent publication US10155777B2, “Trans-cycloheptenes and hetero-trans-cycloheptenes for bioorthogonal coupling” (UNIVERSITY OF DELAWARE, priority 2015, dated 2018) come the findings set out here.

Take `C[Si]1(CCCCO)CCC=CCC1` [(E)-Si-(4-hydroxybutyl)-Si-methyl-5-silacycloheptene]: the “rate constant of reaction with tetrazine” value is given as “exceeds 10^7 M^−1s^−1”.
